Series [1] is described as follows: Apoptosis assay, annexin V-FITC/PI double staining, flow cytometry. Format: cell-based, Human. Particulars: human, Jurkat cells, 37 °C, Figure 4, read-out: viable cells (lower left quadrant). On the procedure:
(§1) For this purpose, Jurkat was incubated with the molecules at a concentration of 200 μM, and flow cytometric analysis with annexin V/propidium iodine (PI) double staining was carried out.
(§2) The apoptosis analysis was performed on Jurkat cells seeded at 2.5 × 10^5 cells/mL in a 6-well plate. The cells were incubated in the absence or presence of 200 μM concentration of examined compounds at 37 °C and apoptosis induction was analysed after 48 h by double staining with annexin V/FITC and propidium iodide (PI) (eBioscience, Affimetrix Santa Clara, CA, USA). The cells undergoing apoptosis were quantified using a flow cytometer equipped with a 488 nm argon laser (Becton Dickinson, Franklin Lakes, NJ, USA) by Cell Quest software. All FACS analyses were performed at least 2 times.
In general terms: A flow cytometer gives signals particle by particle.

For the next series, the system named is Jurkat cells. Described as above. Particulars: 200 μM, 48 h. Format: cell-based, Human. On the procedure: as §1, §2
The next series deals with Jurkat. Nature of the series: Antiproliferative activity on Jurkat cells (CCK-8). Format: cell-based. Particulars: Homo sapiens, 48 h incubation. On the procedure:
(§3) Human T lymphoblastoid (Jurkat) and human metastatic melanoma (WM266) cell lines were grown in RPMI medium supplemented with heat inactivated 10% fetal bovine serum (FBS), 2.5 mM glutamine, 100 U/mL penicillin, and 100 μg/mL streptomycin (Euroclone). Human cervix adenocarcinoma cell line (HeLa), human lung carcinoma (A549), human pancreatic cancer (PANC), human glioblastoma (U87) normal human fibroblasts (HDF) were grown in DMEM supplemented with 10% fetal bovine serum (FBS), 1% glutamine, 100 U/mL penicillin and 100 μg/mL streptomycin (Euroclone, Milano, Italy). Cells were maintained in humidified air containing 5% CO2, at 37 °C [30].
(§4) Cells were plated at density of 10,000 cells/well for Jurkat, 2000/well for WM266 and HDF, 1200 cells/well for HeLa, and 1000 for PANC, U87 and A375 in 96-well microplates (Thermofisher, Waltham, MA, USA). After 24 h incubation, cells were treated with increasing concentrations of synthetized compounds previously solubilized in DMSO at 50 mM concentration. Cell proliferation was determined by using (2-(2-methoxy-4-nitrophenyl)-3-(4-nitrophenyl)-5-(2,4-disulfophenyl)-2H-tetrazolium, monosodium salt (CCK-8, Sigma Aldrich) for Jurkat cells, and the 3-(4,5-dimethylthiazol-2-yl)-2,5- diphenyltetrazolium bromide assay (MTT, Sigma Aldrich, Sigma Aldrich, St. Louis, MO, USA)) for HeLa, WM266, PANC, U87 and HDF cells, after 48 h treatment. Plates were then analyzed by using a microplate reader (Enspire, Perkin Elmer Italia Spa, Milano, Italy) at 450 (CCK-8) or 570 nm (MTT).
(§5) The results are presented as the percentage of proliferating cells respect to the control (vehicle treated cells) and are expressed as means ± SE of, at least, three independent experiments performed in triplicate. The statistical analysis was performed using Student’s t-test, unpaired, two-sided, p < 0.05 was considered significant. The IC50 values were calculated by GraphPad Prism software.

The next series deals with HDF. The series is described as follows: Antiproliferative activity on normal human fibroblasts HDF. The class given is cell-based. Particulars: 48 h incubation. The procedure:
as §3, §4, §5

Details of series [2]: method as in PMID 28800072. Particulars: estimated, relative to silibinin; cited from earlier work.
Series [3] can be described thus: Hydroxyl radical (HO•) scavenging, second-order rate constant by laser flash photolysis (thiocyanate competition). Particulars: calculated in H2O; mean of three replicates. An excerpt:
Biologically, the hydroxyl radical (HO^●) is widely believed to be generated when hydrogen peroxide reacts with Fe(II) (Fenton reaction). The putative HO^●∙is an extremely reactive and short-lived species that can damage DNA, proteins, and lipids. However, the Fe(II)/H2O2 mixture has disadvantages in a scavenging assay because many flavonoids as well as flavonolignans are also metal chelators. When the sample is mixed with Fe(II), it may alter the activity of Fe(II) by chelation. As a result, it is impossible to distinguish if the antioxidants are simply good metal chelators or HO^● scavengers. In our study the second order rate constants for HO^● reactions with silybin dimers (6aa, 6bb and 6ab) have been determined by pulse photolysis method using hydrogen peroxide (H2O2) as ROS sources. […] This could be explained considering that in dimers 9′′-9′′ the 3, 5 and 4′′ OH functions, responsible for the radical scavenger activity, are not involved in any bond. […]
The reactivity constant between new silybin dimers and hydroxyl radical has been determined using Laser flash Photolysis system. […]
The formation of di-thiocyanate radical anion (SCN2^●−) through reactivity of photogenerated hydroxyl radicals (HO^●) with thiocyanate (SCN^- in the presence of hydrogen peroxide. The second-order rate constants between HO^● and dimers were determined following reactions (R1–R4 in the Section 2.2) and using the following equation:(1) Abs0/Abs=1+kHO^•,DimerII[Dimer]/kHO^•,SCN^−II[SCN^−] where Abs0 and Abs are the absorption of SCN2•− at 475 nm in absence and presence of dimers; kHO^•,SCN^−II and kHO^•,DimerII are the second-order rate constants of HO^● with thiocyanate and dimers at different concentrations. […] Means were compared by one way analysis of variance (ANOVA) and significant differences were assessed by post hoc tests of least significant. […]

In general, IC50 refers to the concentration that gives 50% inhibition. Turning to `COc1cc([C@H]2Oc3cc([C@H]4Oc5cc(O)cc(O)c5C(=O)[C@@H]4O)ccc3O[C@@H]2CO)ccc1O` [Compound 1a, silybin A, reference compound], in series [1], the viability at 48 h, 200 µM amounted to 20.2%. Besides, in the series on Jurkat cells, the “apoptotic cells (early and advanced) with respect to the control” value (from here on “apoptotic cells (early and advanced)”) amounted to 70%. Besides, the values for the IC50 in the series with Jurkat and in the series with HDF were 46.7 ± 14.1 µM and 199 ± 34.5 µM, respectively.
With `COc1cc(C2Oc3cc([C@H]4Oc5cc(O)cc(O)c5C(=O)[C@@H]4O)ccc3OC2COP(=O)(O)OCC2Oc3ccc([C@H]4Oc5cc(O)cc(O)c5C(=O)[C@@H]4O)cc3OC2c2ccc(O)c(OC)c2)ccc1O` (stereo partly shown) [9′′-9′′], the “reactivity towards HO• with respect to silibinin” value in series [2] is listed as “about two times”.
With `COc1cc([C@@H]2Oc3cc([C@H]4Oc5cc(O)cc(O)c5C(=O)[C@@H]4O)ccc3O[C@H]2COP(=O)(O)OC[C@@H]2Oc3ccc([C@H]4Oc5cc(O)cc(O)c5C(=O)[C@@H]4O)cc3O[C@H]2c2ccc(O)c(OC)c2)ccc1O` [Compound 6bb], in series [1], the viability at 48 h, 200 µM worked out at 84.8%. Also, in the series with Jurkat cells, the “apoptotic cells (early and advanced)” value was 4%. Further, the IC50 with Jurkat was 59 ± 19.9 µM; in the series with HDF it was more than 200 µM. In addition, the “Second order rate constant kHO•,X II” value in series [3] is 1.01 ± 0.16 × 10^10 M^−1·s^−1.
In the case of `COc1cc([C@H]2Oc3cc([C@H]4Oc5cc(O)cc(O)c5C(=O)[C@@H]4O)ccc3O[C@@H]2COP(=O)(O)OC[C@@H]2Oc3ccc([C@H]4Oc5cc(O)cc(O)c5C(=O)[C@@H]4O)cc3O[C@H]2c2ccc(O)c(OC)c2)ccc1O` [Compound 6ab], in series [1], the viability at 48 h, 200 µM came out at 63.6%. Further, the “apoptotic cells (early and advanced)” value in the series with Jurkat cells is reported as “about 25%”. Further, the values for the half-maximal inhibitory concentration (IC50) with Jurkat and with HDF were 64 ± 10.8 µM and more than 200 µM, respectively. Further, the “Second order rate constant kHO•,X II” value in series [3] is recorded as 1.48 ± 0.09 × 10^10 M^−1·s^−1.
`COc1cc([C@H]2Oc3cc([C@H]4Oc5cc(O)cc(O)c5C(=O)[C@@H]4O)ccc3O[C@@H]2COP(=O)(O)OC[C@H]2Oc3ccc([C@H]4Oc5cc(O)cc(O)c5C(=O)[C@@H]4O)cc3O[C@@H]2c2ccc(O)c(OC)c2)ccc1O` [Compound 6aa]: the viability at 48 h, 200 µM in series [1] amounted to 73%. Besides, in the series on Jurkat cells, the “apoptotic cells (early and advanced)” value is listed as 20%. For the same molecule, the half-maximal inhibitory concentration (IC50) with Jurkat is 71 ± 15.5 µM; with HDF, more than 200 µM. The “Second order rate constant kHO•,X II” value in series [3] is given as 8.63 ± 1.35 × 10^9 M^−1·s^−1.
Take `COc1cc([C@@H]2Oc3cc([C@H]4Oc5cc(O)cc(O)c5C(=O)[C@@H]4O)ccc3O[C@H]2CO)ccc1O` [Compound 1b, silybin B, reference compound]: the viability at 48 h, 200 µM in series [1] amounted to 17.1%. For the same molecule, the “apoptotic cells (early and advanced)” value with Jurkat cells worked out at 70%. Besides, the 50% inhibitory concentration (IC50) with Jurkat was 36 ± 14.3 µM; in the series with HDF, 172 ± 39 µM.
`COc1cc(C2Oc3cc([C@H]4Oc5cc(O)cc(O)c5C(=O)[C@@H]4OP(=O)(O)OCC4Oc5ccc([C@H]6Oc7cc(O)cc(O)c7C(=O)[C@@H]6O)cc5OC4c4ccc(O)c(OC)c4)ccc3OC2CO)ccc1O` (stereo partly shown) [3-9′′]: in series [2], the “reactivity towards HO• with respect to silibinin” value is recorded as “about two times”.

These data come from article PMC8911775, “Phosphodiester Silybin Dimers Powerful Radical Scavengers: A Antiproliferative Activity on Different Cancer Cell Lines” (Molecules, 2022).
